In patent US12252524B2, “GIP/GLP1 co-agonist compounds” (Eli Lilly and Company, priority 2018, dated 2025):
Square brackets hold non-standard residues; d marks the D form. Peptide text beside a SMILES is read from it. αMePhe(2-F) = C[C@](N)(Cc1ccccc1F)C(=O)O; αMeY = C[C@](N)(Cc1ccc(O)cc1)C(=O)O; 4Pal = N[C@@H](Cc1ccncc1)C(=O)O; αMeL = CC(C)C[C@](C)(N)C(=O)O; Orn = NCCC[C@H](N)C(=O)O; Aib = CC(C)(N)C(=O)O

How the values were obtained:
[1] = molecular target: T1, gastric inhibitory peptide receptor (GIPR) (Homo sapiens, UniProt P48546); assay: cAMP pharmacological functional assay in presence of casein, hGIPR; type: cell-based; details: HEK293 cells expressing hGIPR, 0.1% Casein, geometric mean; read-out: hGIPR cAMP Rel EC50 nM (SEM, n)
T1 sequence (P48546 22-466): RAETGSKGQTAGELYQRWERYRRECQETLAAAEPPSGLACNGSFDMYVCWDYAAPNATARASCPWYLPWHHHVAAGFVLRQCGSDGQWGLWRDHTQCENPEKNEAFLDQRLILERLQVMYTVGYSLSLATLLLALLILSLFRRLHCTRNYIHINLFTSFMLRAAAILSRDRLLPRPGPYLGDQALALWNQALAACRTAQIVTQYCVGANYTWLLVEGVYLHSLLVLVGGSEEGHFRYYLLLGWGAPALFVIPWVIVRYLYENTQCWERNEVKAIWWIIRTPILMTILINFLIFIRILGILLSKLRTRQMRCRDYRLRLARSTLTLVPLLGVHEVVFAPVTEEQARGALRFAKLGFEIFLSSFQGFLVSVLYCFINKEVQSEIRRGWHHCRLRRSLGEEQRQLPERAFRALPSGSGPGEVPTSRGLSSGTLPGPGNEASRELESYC

[2] = molecular target: human GLP-1 receptor (GLP-1R) (Homo sapiens, UniProt P43220); assay: cAMP pharmacological functional assay in presence of casein, hGLP-1R; type: cell-based; details: HEK293 cells expressing hGLP-1R, 0.1% Casein, geometric mean; read-out: hGLP1R cAMP Rel EC50 nM (SEM, n)
human GLP-1 receptor (GLP-1R), sequence (P43220 24-463): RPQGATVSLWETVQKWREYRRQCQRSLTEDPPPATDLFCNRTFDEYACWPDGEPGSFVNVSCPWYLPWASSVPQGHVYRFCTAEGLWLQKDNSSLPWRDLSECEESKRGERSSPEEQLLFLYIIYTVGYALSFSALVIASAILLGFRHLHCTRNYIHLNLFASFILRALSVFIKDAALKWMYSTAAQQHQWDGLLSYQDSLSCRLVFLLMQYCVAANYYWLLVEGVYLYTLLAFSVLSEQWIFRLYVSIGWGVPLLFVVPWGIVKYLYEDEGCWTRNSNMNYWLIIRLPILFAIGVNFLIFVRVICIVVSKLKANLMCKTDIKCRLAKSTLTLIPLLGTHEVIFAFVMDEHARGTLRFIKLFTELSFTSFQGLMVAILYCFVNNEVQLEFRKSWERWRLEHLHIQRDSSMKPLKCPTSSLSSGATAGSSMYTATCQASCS

| SMILES | EC50 [1] | EC50 [2] |
| --- | --- | --- |
| CC[C@H](C)[C@H](NC(=O)[C@H](CC(C)C)NC(=O)[C@H](Cc1ccc(O)cc1)NC(=O)[C@@H](CCC(=O)O)NC(=O)[C@@H](NC(=O)[C@H](Cc1ccccc1)NC(=O)[C@H](CCC(=O)O)NC(=O)C(C)(C)NC(=O)[C@H](CCC(N)=O)NC(=O)[C@H](C)NC(=O)[C@H](CCC(N)=O)NC(=O)[C@H](CCCN)NC(=O)[C@H](CC(=O)O)NC(=O)[C@H](CC(C)C)NC(=O)[C@](C)(CC(C)C)NC(=O)[C@@H](NC(=O)[C@H](CO)NC(=O)[C@H](Cc1ccc(O)cc1)NC(=O)[C@H](CC(=O)O)NC(=O)[C@H](CO)NC(=O)[C@@H](NC(=O)[C@](C)(Cc1ccccc1F)NC(=O)[C@@H](NC(=O)CNC(=O)[C@H](CCC(=O)O)NC(=O)C(C)(C)NC(=O)[C@@H](N)Cc1ccc(O)cc1)[C@@H](C)O)[C@@H](C)O)[C@@H](C)CC)[C@@H](C)CC)C(=O)N[C@@H](CCC(=O)O)C(=O)NCC(=O)NCC(=O)N1CCC[C@H]1C(=O)N[C@@H](CO)C(=O)N[C@@H](CO)C(=O)NCC(=O)N[C@@H](C)C(=O)N1CCC[C@H]1C(=O)N1CCC[C@H]1C(=O)N1CCC[C@H]1C(=O)N[C@@H](CO)C(=O)N[C@@H](CS)C(N)=O [Example 283] (H-Y[Aib]EGT[αMePhe(2-F)]TSDYSI[αMeL]LD[Orn]QAQ[Aib]EFI[dE]YLIEGGPSSGAPPPSC-NH2) | 0.301 nM | 0.155 nM |
| CC[C@H](C)[C@H](NC(=O)[C@H](CC(C)C)NC(=O)[C@](C)(Cc1ccc(O)cc1)NC(=O)[C@@H](CCC(=O)O)NC(=O)[C@@H](NC(=O)[C@H](Cc1ccccc1)NC(=O)[C@H](CCC(=O)O)NC(=O)C(C)(C)NC(=O)[C@H](CCC(N)=O)NC(=O)[C@H](C)NC(=O)[C@H](CCCCN)NC(=O)[C@H](CCCN)NC(=O)[C@H](CC(=O)O)NC(=O)[C@H](CC(C)C)NC(=O)[C@](C)(CC(C)C)NC(=O)[C@@H](NC(=O)[C@H](CO)NC(=O)[C@H](Cc1ccncc1)NC(=O)[C@H](CC(=O)O)NC(=O)[C@H](CO)NC(=O)[C@@H](NC(=O)[C@](C)(Cc1ccccc1F)NC(=O)[C@@H](NC(=O)CNC(=O)[C@H](CCC(=O)O)NC(=O)C(C)(C)NC(=O)[C@@H](N)Cc1ccc(O)cc1)[C@@H](C)O)[C@@H](C)O)[C@@H](C)CC)[C@@H](C)CC)C(=O)N[C@@H](CCC(=O)O)C(=O)NCC(=O)NCC(=O)N1CCC[C@H]1C(=O)N[C@@H](CO)C(=O)N[C@@H](CO)C(=O)NCC(=O)N[C@@H](C)C(=O)N1CCC[C@H]1C(=O)N1CCC[C@H]1C(=O)N1CCC[C@H]1C(=O)N[C@@H](CO)C(N)=O [Example 284] (H-Y[Aib]EGT[αMePhe(2-F)]TSD[4Pal]SI[αMeL]LD[Orn]KAQ[Aib]EFI[dE][αMeY]LIEGGPSSGAPPPS-NH2) | 0.113 nM | 0.0462 nM |
| CC[C@H](C)[C@H](NC(=O)[C@H](CC(C)C)NC(=O)[C@](C)(Cc1ccc(O)cc1)NC(=O)[C@@H](CCC(=O)O)NC(=O)[C@@H](NC(=O)[C@H](Cc1ccccc1)NC(=O)[C@H](CCC(=O)O)NC(=O)C(C)(C)NC(=O)[C@H](CCC(N)=O)NC(=O)[C@H](C)NC(=O)[C@H](CCC(N)=O)NC(=O)[C@H](CCCN)NC(=O)[C@H](CC(=O)O)NC(=O)[C@H](CC(C)C)NC(=O)[C@](C)(CC(C)C)NC(=O)[C@@H](NC(=O)[C@H](CO)NC(=O)[C@H](Cc1ccncc1)NC(=O)[C@H](CC(=O)O)NC(=O)[C@H](CO)NC(=O)[C@@H](NC(=O)[C@](C)(Cc1ccccc1F)NC(=O)[C@@H](NC(=O)CNC(=O)[C@H](CCC(=O)O)NC(=O)C(C)(C)NC(=O)[C@@H](N)Cc1ccc(O)cc1)[C@@H](C)O)[C@@H](C)O)[C@@H](C)CC)[C@@H](C)CC)C(=O)N[C@@H](CCC(=O)O)C(=O)NCC(=O)NCC(=O)N1CCC[C@H]1C(=O)N[C@@H](CO)C(=O)N[C@@H](CO)C(=O)NCC(=O)N[C@@H](C)C(=O)N1CCC[C@H]1C(=O)N1CCC[C@H]1C(=O)N1CCC[C@H]1C(=O)N[C@@H](CO)C(N)=O [Example 285] (H-Y[Aib]EGT[αMePhe(2-F)]TSD[4Pal]SI[αMeL]LD[Orn]QAQ[Aib]EFI[dE][αMeY]LIEGGPSSGAPPPS-NH2) | 0.0884 nM | 0.072 nM |
| CC[C@H](C)[C@H](NC(=O)[C@H](CC(C)C)NC(=O)[C@](C)(Cc1ccc(O)cc1)NC(=O)[C@@H](CCC(=O)O)NC(=O)[C@@H](NC(=O)[C@H](Cc1ccccc1)NC(=O)[C@H](CCC(=O)O)NC(=O)C(C)(C)NC(=O)[C@H](CCC(N)=O)NC(=O)[C@H](C)NC(=O)[C@H](CCCCN)NC(=O)[C@H](CCCN)NC(=O)[C@H](CC(=O)O)NC(=O)[C@H](CC(C)C)NC(=O)[C@](C)(CC(C)C)NC(=O)[C@@H](NC(=O)[C@H](CO)NC(=O)[C@H](Cc1ccncc1)NC(=O)[C@H](CC(=O)O)NC(=O)[C@H](CO)NC(=O)[C@@H](NC(=O)[C@](C)(Cc1ccccc1F)NC(=O)[C@@H](NC(=O)CNC(=O)[C@H](CCC(=O)O)NC(=O)C(C)(C)NC(=O)[C@@H](N)Cc1ccc(O)cc1)[C@@H](C)O)[C@@H](C)O)[C@@H](C)CC)[C@@H](C)CC)C(=O)N[C@@H](CCC(=O)O)C(=O)NCC(=O)NCC(=O)N1CCC[C@H]1C(=O)N[C@@H](CO)C(=O)N[C@@H](CO)C(=O)NCC(=O)N[C@@H](C)C(=O)N1CCC[C@H]1C(=O)N1CCC[C@H]1C(=O)N1CCC[C@H]1C(=O)N[C@@H](CO)C(=O)N[C@@H](CS)C(N)=O [Example 286] (H-Y[Aib]EGT[αMePhe(2-F)]TSD[4Pal]SI[αMeL]LD[Orn]KAQ[Aib]EFI[dE][αMeY]LIEGGPSSGAPPPSC-NH2) | 0.184 nM | 0.0602 nM |
| CC[C@H](C)[C@H](NC(=O)[C@H](CC(C)C)NC(=O)[C@](C)(Cc1ccc(O)cc1)NC(=O)[C@@H](CCC(=O)O)NC(=O)[C@@H](NC(=O)[C@H](Cc1ccccc1)NC(=O)[C@H](CCC(=O)O)NC(=O)C(C)(C)NC(=O)[C@H](CCC(N)=O)NC(=O)[C@H](C)NC(=O)[C@H](CCC(N)=O)NC(=O)[C@H](CCCN)NC(=O)[C@H](CC(=O)O)NC(=O)[C@H](CC(C)C)NC(=O)[C@](C)(CC(C)C)NC(=O)[C@@H](NC(=O)[C@H](CO)NC(=O)[C@H](Cc1ccncc1)NC(=O)[C@H](CC(=O)O)NC(=O)[C@H](CO)NC(=O)[C@@H](NC(=O)[C@](C)(Cc1ccccc1F)NC(=O)[C@@H](NC(=O)CNC(=O)[C@H](CCC(=O)O)NC(=O)C(C)(C)NC(=O)[C@@H](N)Cc1ccc(O)cc1)[C@@H](C)O)[C@@H](C)O)[C@@H](C)CC)[C@@H](C)CC)C(=O)N[C@@H](CCC(=O)O)C(=O)NCC(=O)NCC(=O)N1CCC[C@H]1C(=O)N[C@@H](CO)C(=O)N[C@@H](CO)C(=O)NCC(=O)N[C@@H](C)C(=O)N1CCC[C@H]1C(=O)N1CCC[C@H]1C(=O)N1CCC[C@H]1C(=O)N[C@@H](CO)C(=O)N[C@@H](CS)C(N)=O [Example 287] (H-Y[Aib]EGT[αMePhe(2-F)]TSD[4Pal]SI[αMeL]LD[Orn]QAQ[Aib]EFI[dE][αMeY]LIEGGPSSGAPPPSC-NH2) | 0.15 nM | 0.112 nM |
